Laboratory results reported in US20220033397A1, “PHARMACEUTICAL COMPOUNDS AND THEIR USE AS INHIBITORS OF UBIQUITIN SPECIFIC PROTEASE 19 (USP19)” (ALMAC DISCOVERY LIMITED, priority 2018, published 2022).

Target: T1, Full-length USP19 (Homo sapiens, UniProt O94966)
T1 construct: Full-length USP19 was purchased from Boston Biochem (E-576); purchased Boston Biochem E-576
T1 sequence (O94966 1-1318): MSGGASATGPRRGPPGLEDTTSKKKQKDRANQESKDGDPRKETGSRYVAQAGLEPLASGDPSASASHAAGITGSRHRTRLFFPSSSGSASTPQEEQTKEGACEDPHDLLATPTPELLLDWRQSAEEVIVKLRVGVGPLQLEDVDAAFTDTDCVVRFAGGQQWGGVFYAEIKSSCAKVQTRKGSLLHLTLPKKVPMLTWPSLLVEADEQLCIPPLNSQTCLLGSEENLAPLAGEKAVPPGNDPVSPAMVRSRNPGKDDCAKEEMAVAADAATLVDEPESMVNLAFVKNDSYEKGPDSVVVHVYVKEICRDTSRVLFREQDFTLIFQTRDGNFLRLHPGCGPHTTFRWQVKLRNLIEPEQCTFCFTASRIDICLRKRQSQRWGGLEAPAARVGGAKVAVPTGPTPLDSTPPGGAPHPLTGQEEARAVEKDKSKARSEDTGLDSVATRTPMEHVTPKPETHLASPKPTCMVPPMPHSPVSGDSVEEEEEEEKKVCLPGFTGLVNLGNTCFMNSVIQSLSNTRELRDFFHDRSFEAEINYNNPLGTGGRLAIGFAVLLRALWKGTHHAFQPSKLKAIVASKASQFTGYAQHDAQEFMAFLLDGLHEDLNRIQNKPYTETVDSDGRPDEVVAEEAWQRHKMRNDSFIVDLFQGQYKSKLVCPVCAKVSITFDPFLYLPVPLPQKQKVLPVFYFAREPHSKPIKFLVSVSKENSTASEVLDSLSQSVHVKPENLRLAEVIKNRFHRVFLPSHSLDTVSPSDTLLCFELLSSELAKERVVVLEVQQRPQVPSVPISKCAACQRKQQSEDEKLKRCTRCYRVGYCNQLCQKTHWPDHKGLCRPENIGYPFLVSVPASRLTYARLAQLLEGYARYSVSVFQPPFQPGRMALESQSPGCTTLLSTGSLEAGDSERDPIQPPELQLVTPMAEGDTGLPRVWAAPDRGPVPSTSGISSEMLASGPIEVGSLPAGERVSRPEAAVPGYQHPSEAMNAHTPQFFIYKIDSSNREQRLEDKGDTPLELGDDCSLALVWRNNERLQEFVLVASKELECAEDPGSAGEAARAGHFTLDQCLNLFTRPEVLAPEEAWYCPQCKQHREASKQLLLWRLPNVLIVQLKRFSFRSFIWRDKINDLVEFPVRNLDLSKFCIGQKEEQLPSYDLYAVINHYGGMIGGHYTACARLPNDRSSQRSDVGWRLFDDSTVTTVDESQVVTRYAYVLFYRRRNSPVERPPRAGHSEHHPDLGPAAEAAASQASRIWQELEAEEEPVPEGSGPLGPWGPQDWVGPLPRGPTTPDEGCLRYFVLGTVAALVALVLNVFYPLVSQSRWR
Experiment: USP19 fluorescence polarisation (FP) homogeneous assay with Ubiquitin-Lys-TAMRA substrate
Type: biochemical
Conditions: 2.5 nM USP19, 30 min pre-incubation, average of at least two duplicate experiments
Description: Unless otherwise stated, all other reagents were purchased from Sigma. Enzymatic reactions were conducted in black flat bottom polystyrene 384-well plates (Nunc) and 30 μL total volume. […] Inhibitors were stored as 10 mM DMSO stocks in an inert environment (low humidity, dark, low oxygen, room temperature) using the Storage Pod System and serial dilutions were prepared in buffer just prior to the assay (from 200 μM to 2 μM, 8-18 data point curve).
Following incubation at RT for 30 min, the enzymatic reactions were initiated by dispensing the Ub substrate (500 nM, 10 μL). FP was measured every 15 min over a period of 90 min (within the linear range of the assay) using a Synergy 4 plate reader (BioTek) exciting at 530 nm and measuring the amount of parallel and perpendicular light at 575 nm. The FP signal was subsequently normalised to the no compound control.

Row | Compound | IC50 [µM]
1 | N=S1(=O)CCN(C(=O)N2CC[C@@](O)(Cn3cnc(-c4ccccc4)cc3=O)C3(CCCC3)C2)[C@H](c2cc(F)ccc2F)C1 (mixture of isomers) [Example 395] | < 0.5
2 | O=C(N1CC[C@@](O)(Cn2cnc(-c3ccccc3)cc2=O)C2(CCCC2)C1)N1CCNCC1c1cc(F)cc(F)c1 (mixture of isomers) [Example 380, 3-(((10S)-7-(2-(3,5-difluorophenyl)piper-azine-1-carbonyl)-10-hydroxy-7-azaspiro[4.5]decan-10-yl)methyl)-6-phenylpyrimidin-4(3H)-one] | < 0.5
3 | C[C@H](CC1CCCCC1)C(=O)N1CCC(O)(Cn2ccncc2=O)C(C)(C)C1 (stereo partly drawn) [Example 1, 1-((1-((R)-3-Cyclohexyl-2-methylpropanoyl)-4-hydroxy-3,3-dimethylpiperidin-4-yl)methyl)pyrazin-2(1H)-one] | 0.5 to 5
4 | C[C@H](CC1CCCCC1)C(=O)N1CCC(O)(Cn2cc(-c3ccccc3)ncc2=O)C(C)(C)C1 (stereo partly drawn) [Example 2, 1-((1-((R)-3-Cyclohexyl-2-methylpropanoyl)-4-hydroxy-3,3-dimethylpiperidin-4-yl)methyl)-5-phenylpyrazin-2(1H)-one] | 0.5 to 5
5 | C[C@H](CC1CCCCC1)C(=O)N1CCC(O)(Cn2ccncc2=O)C2(CCCC2)C1 (stereo partly drawn) [Example 3, 1-((7-((R)-3-Cyclohexyl-2-methylpropanoyl)-10-hydroxy-7-azaspiro[4.5]decan-10-yl)methyl)pyrazin-2(1H)-one] | 0.5 to 5
6 | C[C@H](CC1CCC1)C(=O)N1CCC(O)(Cn2ccncc2=O)C2(CCCC2)C1 (stereo partly drawn) [Example 4, 1-((7-((R)-3-Cyclobutyl-2-methylpropanoyl)-10-hydroxy-7-azaspiro[4.5]decan-10-yl)methyl) pyrazin-2(1H)-one] | 0.5 to 5
7 | C[C@H](CC(F)(F)F)C(=O)N1CCC(O)(Cn2ccncc2=O)C2(CCCC2)C1 (stereo partly drawn) [Example 5, 1-((10-Hydroxy-7-((R)-4,4,4-trifluoro-2-methylbutanoyl)-7-azaspiro[4.5]decan-10-yl)methyl)pyrazin-2(1H)-one] | 5 to 50
8 | C[C@H](CC1CCCCC1)C(=O)N1CCC(O)(Cn2cc(Cl)ncc2=O)C2(CCCC2)C1 (stereo partly drawn) [Example 6, 5-Chloro-1-((7-((R)-3-cyclohexyl-2-methylpropanoyl)-10-hydroxy-7-azaspiro[4.5]decan-10-yl)methyl)pyrazin-2(1H)-one] | < 0.5
9 | C[C@H](CC1CCCCC1)C(=O)N1CCC(O)(Cn2cc(Br)ncc2=O)C2(CCCC2)C1 (stereo partly drawn) [Example 7, 5-Bromo-1-((7-((R)-3-cyclohexyl-2-methylpropanoyl)-10-hydroxy-7-azaspiro[4.5]decan-10-yl)methyl)pyrazin-2(1H)-one] | < 0.5
10 | COC(=O)c1cn(CC2(O)CCN(C(=O)[C@H](C)CC3CCCCC3)CC23CCCC3)c(=O)cn1 (stereo partly drawn) [Example 8, Methyl 4-((7-((R)-3-cyclohexyl-2-methylpropanoyl)-10-hydroxy-7-azaspiro[4.5]decan-10-yl)methyl)-5-oxo-4,5-dihydropyrazine-2-carboxylate] | < 0.5
11 | C[C@H](CC1CCCCC1)C(=O)N1CCC(O)(Cn2cc(C(=O)O)ncc2=O)C2(CCCC2)C1 (stereo partly drawn) [Example 9, 4-((7-((R)-3-Cyclohexyl-2-methylpropanoyl)-10-hydroxy-7-azaspiro[4.5]decan-10-yl)methyl)-5-oxo-4,5-dihydropyrazine-2-carboxylic acid] | 0.5 to 5
12 | C[C@H](CC1CCCCC1)C(=O)N1CCC(O)(Cn2cc(C(=O)N(C)C)ncc2=O)C2(CCCC2)C1 (stereo partly drawn) [Example 10, 4-((7-((R)-3-Cyclohexyl-2-methylpropanoyl)-10-hydroxy-7-azaspiro[4.5]decan-10-yl)methyl)-N,N-dimethyl-5-oxo-4,5-dihydropyrazine-2-carboxamide] | < 0.5
13 | C[C@H](CC1CCCCC1)C(=O)N1CCC(O)(Cn2cc(C(=O)N3CCNCC3)ncc2=O)C2(CCCC2)C1 (stereo partly drawn) [Example 11, 1-((7-((R)-3-Cyclohexyl-2-methylpropanoyl)-10-hydroxy-7-azaspiro[4.5]decan-10-yl)methyl)-5-(piperazine-1-carbonyl)pyrazin-2(1H)-one] | < 0.5
14 | C[C@H](CC1CCCCC1)C(=O)N1CCC(O)(Cn2cc(-c3cccnc3)ncc2=O)C(C)(C)C1 (stereo partly drawn) [Example 12, 1-((1-((R)-3-Cyclohexyl-2-methylpropanoyl)-4-hydroxy-3,3-dimethylpiperidin-4-yl)methyl)-5-(pyridin-3-yl)pyrazin-2(1H)-one] | 0.5 to 5
15 | C[C@H](CC1CCCCC1)C(=O)N1CCC(O)(Cn2cc(N3CCCC3=O)ncc2=O)C(C)(C)C1 (stereo partly drawn) [Example 13, 1-((1-((R)-3-Cyclohexyl-2-methylpropanoyl)-4-hydroxy-3,3-dimethylpiperidin-4-yl)methyl)-5-(2-oxopyrrolidin-1-yl)pyrazin-2(1H)-one] | 0.5 to 5
16 | C[C@H](CC1CCCCC1)C(=O)N1CCC(O)(Cn2cc(-c3ccncc3)ncc2=O)C(C)(C)C1 (stereo partly drawn) [Example 14, 1-((1-((R)-3-Cyclohexyl-2-methylpropanoyl)-4-hydroxy-3,3-dimethylpiperidin-4-yl)methyl)-5-(pyridin-4-yl)pyrazin-2(1H)-one] | 0.5 to 5
17 | C[C@H](CC1CCCCC1)C(=O)N1CCC(O)(Cn2cc(-c3ccn[nH]3)ncc2=O)C(C)(C)C1 (stereo partly drawn) [Example 17, 1-((1-((R)-3-Cyclohexyl-2-methylpropanoyl)-4-hydroxy-3,3-dimethylpiperidin-4-yl)methyl)-5-(1H-pyrazol-5-yl)pyrazin-2(1H)-one] | 0.5 to 5
18 | C[C@H](CC1CCCCC1)C(=O)N1CCC(O)(Cn2cc(-n3cccn3)ncc2=O)C(C)(C)C1 (stereo partly drawn) [Example 18, 1-((1-((R)-3-Cyclohexyl-2-methylpropanoyl)-4-hydroxy-3,3-dimethylpiperidin-4-yl)methyl)-5-(1H-pyrazol-1-yl)pyrazin-2(1H)-one] | 0.5 to 5
19 | C[C@H](CC1CCCCC1)C(=O)N1CCC(O)(Cn2cc(-c3cccnc3)ncc2=O)C2(CCCC2)C1 (stereo partly drawn) [Example 19, 1-((7-((R)-3-Cyclohexyl-2-methylpropanoyl)-10-hydroxy-7-azaspiro[4.5]decan-10-yl)methyl)-5-(pyridin-3-yl)pyrazin-2(1H)-one] | 0.5 to 5
20 | C[C@H](CC1CCCCC1)C(=O)N1CCC(O)(Cn2cc(-c3ccncc3)ncc2=O)C2(CCCC2)C1 (stereo partly drawn) [Example 20, 1-((7-((R)-3-Cyclohexyl-2-methylpropanoyl)-10-hydroxy-7-azaspiro[4.5]decan-10-yl)methyl)-5-(pyridin-4-yl)pyrazin-2(1H)-one] | 0.5 to 5
21 | Cc1cn(CC2(O)CCN(C(=O)[C@H](C)CC3CCCCC3)CC2(C)C)c(=O)cn1 (stereo partly drawn) [Example 21, 1-((1-((R)-3-Cyclohexyl-2-methylpropanoyl)-4-hydroxy-3,3-dimethylpiperidin-4-yl)methyl)-5-methylpyrazin-2(1H)-one] | 5 to 50
22 | C[C@H](CC1CCCCC1)C(=O)N1CCC(O)(Cn2cc(C3CC3)ncc2=O)C(C)(C)C1 (stereo partly drawn) [Example 22, 1-((1-((R)-3-Cyclohexyl-2-methylpropanoyl)-4-hydroxy-3,3-dimethylpiperidin-4-yl)methyl)-5-cyclopropylpyrazin-2(1H)-one] | 0.5 to 5
23 | C[C@H](CC1CCCCC1)C(=O)N1CCC(O)(Cn2cc(-c3ccccn3)ncc2=O)C(C)(C)C1 (stereo partly drawn) [Example 23, 1-((1-((R)-3-Cyclohexyl-2-methylpropanoyl)-4-hydroxy-3,3-dimethylpiperidin-4-yl)methyl)-5-(pyridin-2-yl)pyrazin-2(1H)-one] | 5 to 50
24 | C[C@H](CC(=O)N1CCC(O)(CN2CCN(c3ccccc3F)CC2=O)CC1)c1ccccc1 [Example 24, (R)-4-(2-Fluorophenyl)-1-((4-hydroxy-1-(3-phenylbutanoyl)piperidin-4-yl)methyl)piperazin-2-one] | 50 to 250
